# Measured values published in patent publication US8987510B2, “Method for removal of the cyclic diester of a 2-hydroxy alkanoic acid from a vapor” (Purac Biochem BV, priority 2011, dated 2015).
# Key:
# [1] = formation of lactide precipitates in circulating aqueous washing solution contacted with lactide-containing vapor
# Excerpt: In a first experiment according to the invention, a vapor which contains lactide (i.e. the dehydrated cyclic diester of lactic acid or 2-hydroxy propanoic acid) is guided via vapor inlet pipeline 1 into wet washing column 2 shown in FIG. 1. […] Column 2 comprises packed bed 3, which extends over the whole internal diameter of the column. The column is further equipped with a vapor outlet pipeline 4 and a liquid distributor 5. The vapor travels through packed bed 3 and exits the column via vapor outlet pipeline 4. […] Pump 6 further sucks the vapor containing the cyclic diester, such as lactide, from inlet pipeline 1, through column 2, packed bed 3 and outlet line 4 to an exhaust collection system (not shown).
# Column 2 further comprises a liquid storage compartment 7, which contains an aqueous solution. Additional liquid can be introduced in compartment 7 via liquid inlet pipeline 8. […] This solution is circulated through a liquid circulation system comprising liquid circulation pipeline 9, which circulation is powered by liquid pump 10. In practice, the aqueous solution is pumped from the liquid storage compartment 7 via pipeline 9 and heat exchanger 11 to liquid distributor 5. In distributor 5, the alkaline solution is converted from a liquid stream into small droplets. These droplets fall onto and distribute over the upper surface 12 of packed bed 3. Due to gravity, the droplets of the aqueous solution travel through packed bed 3 and fall in the aqueous solution present in storage compartment 7. The size of compartment 7 depends on residence time required under the operation conditions used.
# During the whole experiment, the pH of the solution was maintained above 10. This was achieved by the addition of a base. In the present experiment, sodium hydroxide was used as the base. It appeared to be advantageous to add the base continuously, preferably in liquid form. For this experiment, a commercially available stock solution of 50 w/w-% of NaOH in water (Brenntag, technical grade) was used. […]
# [2] = solubility behavior of mandelide in neutral, acid and alkaline aqueous solution, visual inspection; assay type: physicochemical; settings: 2% by weight mandelide, 20° C., stirred
# Excerpt: In additional experiments according to the present invention, the lactide was replaced by mandelide, the cyclic diester of 2-hydroxy-2-phenylacetic acid (also known as mandelic acid). The solubility behavior of mandelide in a neutral solution, an acid solution and an alkaline solution has been monitored and mutually compared. For this purpose, the acid aqueous solution was made by dissolving 10% by weight of mandelic acid in water. An alkaline aqueous solution was made by adding NaOH until a pH of 13 was reached. The neutral aqueous solution consisted of pure, non-buffered water. To these three aqueous solutions, an amount of 2% by weight of mandelide was added. All solutions were kept at 20° C. and stirred for several hours. In this period of time, the solubility behavior of the mandelide in the aqueous solutions was followed by visual inspection.
compound,measurement,setting,value
CC1OC(=O)C(C)OC1=O (stereo not drawn) [lactide],lactide precipitates,"[1]; alkaline aqueous solution, above pH 10, NaOH, around 15° C., approximately 15 mbar",no lactide precipitates have been observed
same,lactide precipitates,"[1]; alkaline aqueous solution, pH between 7 and 10",formation of small lactide precipitates can occur
same,lactide precipitates,"[1]; comparative: starting pH approximately 7, no base, pH drops below 4",part of the dissolved lactide precipitates
O=C1OC(c2ccccc2)C(=O)OC1c1ccccc1 (stereo not drawn) [mandelide],mandelide dissolved after 60 minutes,[2]; acid solution (10% by weight mandelic acid in water),almost all of the added mandelide was still not dissolved
same,added mandelide dissolved after 60 minutes,"[2]; alkaline solution (NaOH, pH 13)",approximately 50%
same,mandelide dissolved after 60 minutes,"[2]; neutral solution (pure, non-buffered water)",not been dissolved at all
